From the supplement of paper PMC11061612

Columns and labels:
Experiment in all cases: combination Emax (second highest fraction inhibited in the dose matrix, 72 h); higher = more inhibition; extreme values may be limits of the assay
IGR-37 (Melanoma) = test system: IGR-37 (Melanoma)
Summary of the method: (§1)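 Cell lines in DMEM/F12 or RPMI with 10% FBS were plated in 1536-well plates, held 24 hours at 37°C, 5% CO2, then given two-drug dose matrices for 72 hours (DMSO typically 0.2%). Viability was read by CellTiter-Glo 2.0 luminescence and scaled as inhibition from 0 (vehicle wells) to 1 (blank wells). Combination Emax is the second-highest inhibition in the matrix; Bliss excess is observed combination effect minus expected EA + EB − EA·EB, EA and EB being single-agent effects.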

[1] = test system: CAL-29 (Bladder Carcinoma)
Summary of the method: as §1

[2] = test system: A549 (Lung Adenocarcinoma)
Summary of the method: as §1

[3] = test system: PANC-10-05 (Pancreatic Carcinoma)
Summary of the method: as §1

FU97 (Gastric Carcinoma) = test system: FU97 (Gastric Carcinoma)
Summary of the method: as §1

[4] = test system: SK-MES-1 (Squamous Cell Lung Carcinoma)
Summary of the method: as §1

[5] = test system: OS-RC-2 (Kidney Carcinoma)
Summary of the method: as §1

[6] = test system: NCI-H1666 (Lung Adenocarcinoma)
Summary of the method: as §1

U-2-OS (Osteosarcoma) = test system: U-2-OS (Osteosarcoma)
Summary of the method: as §1

[7] = test system: CCK-81 (Colorectal Carcinoma)
Summary of the method: as §1

[8] = test system: HCC1954 (Breast Carcinoma)
Summary of the method: as §1

[9] = test system: ECC10 (Gastric Carcinoma)
Summary of the method: as §1

[10] = test system: ONS-76 (Other Solid Carcinomas)
Summary of the method: as §1

[11] = test system: A3-KAW (B-Cell Non-Hodgkin's Lymphoma)
Summary of the method: as §1

[12] = test system: SK-MG-1 (Low Grade Glioma)
Summary of the method: as §1

Hs-445 (Non-Cancerous) = test system: Hs-445 (Non-Cancerous)
Summary of the method: as §1

[13] = test system: VCaP (Prostate Carcinoma)
Summary of the method: as §1

[14] = test system: MDST8 (Colorectal Carcinoma)
Summary of the method: as §1

[15] = test system: TT (Thyroid Gland Carcinoma)
Summary of the method: as §1

NCI-H2591 (Mesothelioma) = test system: NCI-H2591 (Mesothelioma)
Summary of the method: as §1

Structure (SMILES) | combination Emax (IGR-37 (Melanoma)) | combination Emax [1] | combination Emax [2] | combination Emax [3] | combination Emax (FU97 (Gastric Carcinoma)) | combination Emax [4] | combination Emax [5] | combination Emax [6] | combination Emax (U-2-OS (Osteosarcoma)) | combination Emax [7] | combination Emax [8] | combination Emax [9] | combination Emax [10] | combination Emax [11] | combination Emax [12] | combination Emax (Hs-445 (Non-Cancerous)) | combination Emax [13] | combination Emax [14] | combination Emax [15] | combination Emax (NCI-H2591 (Mesothelioma))
Cc1cc2ncnn2cc1Nc1ncc2c(n1)n(C1CCOCC1)c(=O)n2C [AZD7648] + CN(C)CCCOc1ccc(-c2ccc3ncc4c(c3c2)n(C2CCOCC2)c(=O)n4C)cn1 [AZD0156] (first compound max 10 µM, 7x7, partner max 1 µM) | 0.263 | 0.218 | 0.468 | 0.483 | 0.382 | 0.28 | 0.261 | 0.431 | 0.176 | 0.299 | 0.307 | 0.323 | 0.26 | 0.597 | 0.359 | 0.313 | 0.265 | 0.439 | 0.41 | 0.334
NC1(C(=O)N[C@@H](CCO)c2ccc(Cl)cc2)CCN(c2ncnc3[nH]ccc23)CC1 [Capivasertib] + CCN(CCO)CCCOc1ccc2c(Nc3cc(CC(=O)Nc4cccc(F)c4)[nH]n3)ncnc2c1 [AZD2811] (first compound max 10 µM, 7x7, partner max 1 µM) | 0.371 | 0.452 | 0.698 | 0.42 | 0.369 | 0.36 | 0.445 | 0.388 | 0.383 | 0.366 | 0.87 | 0.86 | 0.589 | 0.674 | 0.607 | 0.678 | 0.543 | 0.511 | 0.544 | 0.297
NC1(C(=O)N[C@@H](CCO)c2ccc(Cl)cc2)CCN(c2ncnc3[nH]ccc23)CC1 [Capivasertib] + CC(C)n1c(=O)n(C)c2cnc3cc(F)c(-c4ccc(OCCCN5CCCCC5)nc4)cc3c21 [AZD1390] (first compound max 10 µM, 7x7, partner max 0.3 µM) | 0.447 | 0.337 | 0.59 | 0.416 | 0.361 | 0.237 | 0.401 | 0.31 | 0.288 | 0.327 | 0.752 | 0.274 | 0.386 | 0.49 | 0.519 | 0.483 | 0.458 | 0.363 | 0.425 | 0.182
CN(C)CCCOc1ccc(-c2ccc3ncc4c(c3c2)n(C2CCOCC2)c(=O)n4C)cn1 [AZD0156] + CCN(CCO)CCCOc1ccc2c(Nc3cc(CC(=O)Nc4cccc(F)c4)[nH]n3)ncnc2c1 [AZD2811] (first compound max 1 µM, 7x7, partner max 1 µM) | 0.0663 | 0.284 | 0.595 | 0.218 | 0.188 | 0.204 | 0.11 | 0.211 | 0.152 | 0.159 | 0.0882 | 0.856 | 0.293 | 0.572 | 0.388 | 0.325 | 0.118 | 0.281 | 0.359 | 0.112
CN(CCO)CC[C@H](CSc1ccccc1)Nc1ccc(S(=O)(=O)NC(=O)c2ccc(N3CCC([C@@H](O)c4ccccc4-c4ccc(Cl)cc4)CC3)cc2)cc1S(=O)(=O)C(F)(F)F [AZD4320] + CCN(CCO)CCCOc1ccc2c(Nc3cc(CC(=O)Nc4cccc(F)c4)[nH]n3)ncnc2c1 [AZD2811] (first compound max 1 µM, 7x7, partner max 1 µM) | 0.116 | 0.545 | 0.446 | 0.18 | 0.177 | 0.342 | 0.159 | 0.154 | 0.389 | 0.178 | 0.851 | 1 | 0.589 | 0.371 | 0.731 | 0.926 | 0.194 | 0.918 | 0.615 | 0.561
Cc1c2c(nn1C)CSCc1cc(n(C)n1)CSc1cc(c3ccccc3c1)OCCCc1c(C(=O)O)n(C)c3c-2c(Cl)ccc13 [AZD5991] + C[C@@H]1COCCN1C2=NC(=NC(=C2)C3(CC3)[S@](=N)(=O)C)C4=C5C=CNC5=NC=C4 [AZD6738] (first compound max 1 µM, 7x7, partner max 10 µM) | 0.848 | 0.897 | 0.726 | 0.488 | 0.392 | 0.785 | 0.363 | 0.322 | 0.599 | 0.979 | 0.991 | 0.766 | 0.821 | 1 | 0.566 | 1 | 0.947 | 0.78 | 0.56 | 0.392
